Test results published in US20220389007A1, “INHIBITORS OF HUMAN IMMUNODEFICIENCY VIRUS REPLICATION” (VIIV HEALTHCARE UK (No. 5) LIMITED, priority 2019, published 2022).

Assays:
[1] = Compound cytotoxicity, XTT-based colorimetric assay; assay type: cell-based; settings: human; uninfected MT2 cells, day 4, XTT assay
How it was run: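 Run under the antiviral-assay protocol but without virus. Viability was read on day 4 and CC50 values were derived from the readout.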

recombinant NL4-3 virus = test: HIV cell culture assay (antiviral activity, luciferase readout); assay type: cell-based; settings: Human immunodeficiency virus 1, NL43, MT2, MT-2 cells infected for 4-5 days with recombinant NL4-3 virus carrying Renilla luciferase
How it was run: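 MT-2 cells infected for 4-5 days with NL4-3 reference virus carrying Renilla luciferase in place of part of nef, in presence of serial compound dilutions. Luciferase read with live-cell substrate; EC50 from median effect equation fit.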

For `Cn1nc(NS(C)(=O)=O)c2c(Cl)ccc(-n3c([C@H](Cc4cc(F)cc(F)c4)NC(=O)Cn4nc(C(F)F)c5c4C(F)(F)[C@@H]4C[C@H]54)nc4nc(-c5ccncn5)ccc4c3=O)c21` (atropisomer, axis not shown; (P)) [Example 28, N-((S)-1-((3P)-3-(4-chloro-1-methyl-3-(methylsulfonamido)-1H-indazol-7-yl)-4-oxo-7-(pyrimidin-4-yl)-3,4-dihydropyrido[2,3-d]pyrimidin-2-yl)-2-(3,5-difluorophenyl)ethyl)-2-((3bS,4aR)-3-(difluoromethyl)-5,5-difluoro-3b,4,4a,5-tetrahydro-1H-cyclopropa[3,4]cyclopenta[1,2-c]pyrazol-1-yl)acetamide], the CC50 at 4 day [1] was over 100 nM and the EC50 (recombinant NL4-3 virus) was 0.04 nM.
`Cn1nc(NS(C)(=O)=O)c2c(Cl)ccc(-n3c([C@H](Cc4cc(F)cc(F)c4)NC(=O)Cn4nc(C(F)F)c5c4C(F)(F)[C@@H]4C[C@H]54)nc4nc(-c5cc(C(F)F)ccn5)ccc4c3=O)c21` (atropisomer, axis not shown; (P)) [Example 39, N-((S)-1-((3P)-3-(4-chloro-1-methyl-3-(methylsulfonamido)-1H-indazol-7-yl)-7-(4-(difluoromethyl)pyridin-2-yl)-4-oxo-3,4-dihydropyrido[2,3-d]pyrimidin-2-yl)-2-(3,5-difluorophenyl)ethyl)-2-((3bS,4aR)-3-(difluoromethyl)-5,5-difluoro-3b,4,4a,5-tetrahydro-1H-cyclopropa[3,4]cyclopenta[1,2-c]pyrazol-1-yl)acetamide] showed a CC50 at 4 day [1] of over 100 nM and an EC50 (recombinant NL4-3 virus) of 0.046 nM.
`Cn1nc(NS(C)(=O)=O)c2c(Cl)ccc(-n3c([C@H](Cc4cc(F)cc(F)c4)NC(=O)Cn4nc(C(F)F)c5c4C(F)(F)[C@@H]4C[C@H]54)nc4nc(-c5cnn(CC(F)(F)F)c5)ccc4c3=O)c21` (atropisomer, axis not shown; (P)) [Example 75, N-((S)-1-((3P)-3-(4-chloro-1-methyl-3-(methylsulfonamido)-1H-indazol-7-yl)-4-oxo-7-(1-(2,2,2-trifluoroethyl)-1H-pyrazol-4-yl)-3,4-dihydropyrido[2,3-d]pyrimidin-2-yl)-2-(3,5-difluorophenyl)ethyl)-2-((3bS,4aR)-3-(difluoromethyl)-5,5-difluoro-3b,4,4a,5-tetrahydro-1H-cyclopropa[3,4]cyclopenta[1,2-c]pyrazol-1-yl)acetamide] showed a CC50 at 4 day [1] of over 100 nM and an EC50 (recombinant NL4-3 virus) of 0.09 nM.
Work on `Cn1nc(NS(C)(=O)=O)c2c(Cl)ccc(-n3c([C@H](Cc4cc(F)cc(F)c4)NC(=O)Cn4nc(C(F)F)c5c4C(F)(F)[C@@H]4C[C@H]54)nc4nc(-c5nccnc5Cl)ccc4c3=O)c21` (atropisomer, axis not shown; (P)) [Example 61, N-((S)-1-((3P)-3-(4-chloro-1-methyl-3-(methylsulfonamido)-1H-indazol-7-yl)-7-(3-chloropyrazin-2-yl)-4-oxo-3,4-dihydropyrido[2,3-d]pyrimidin-2-yl)-2-(3,5-difluorophenyl)ethyl)-2-((3bS,4aR)-3-(difluoromethyl)-5,5-difluoro-3b,4,4a,5-tetrahydro-1H-cyclopropa[3,4]cyclopenta[1,2-c]pyrazol-1-yl)acetamide] yielded a CC50 at 4 day [1] of over 100 nM and an EC50 (recombinant NL4-3 virus) of 0.025 nM.
`Cn1nc(NS(C)(=O)=O)c2c(Cl)ccc(-n3c([C@H](Cc4cc(F)cc(F)c4)NC(=O)Cn4nc(C(F)F)c5c4C(F)(F)[C@@H]4C[C@H]54)nc4nc(-c5cnn(C6CC6)c5)ccc4c3=O)c21` (atropisomer, axis not shown; (P)) [Example 74, N-((S)-1-((3P)-3-(4-chloro-1-methyl-3-(methylsulfonamido)-1H-indazol-7-yl)-7-(1-cyclopropyl-1H-pyrazol-4-yl)-4-oxo-3,4-dihydropyrido[2,3-d]pyrimidin-2-yl)-2-(3,5-difluorophenyl)ethyl)-2-((3bS,4aR)-3-(difluoromethyl)-5,5-difluoro-3b,4,4a,5-tetrahydro-1H-cyclopropa[3,4]cyclopenta[1,2-c]pyrazol-1-yl)acetamide] gave a CC50 at 4 day [1] of over 100 nM and an EC50 (recombinant NL4-3 virus) of 0.054 nM.
`Cn1nc(NS(C)(=O)=O)c2c(Cl)ccc(-n3c([C@H](Cc4cc(F)cc(F)c4)NC(=O)Cn4nc(C(F)F)c5c4C(F)(F)[C@@H]4C[C@H]54)nc4nc(-n5ccc(C(F)(F)F)n5)ccc4c3=O)c21` (atropisomer, axis not shown; (P)) [Example 65, N-((S)-1-((3P)-3-(4-chloro-1-methyl-3-(methylsulfonamido)-1H-indazol-7-yl)-4-oxo-7-(3-(trifluoromethyl)-1H-pyrazol-1-yl)-3,4-dihydropyrido[2,3-d]pyrimidin-2-yl)-2-(3,5-difluorophenyl)ethyl)-2-((3bS,4aR)-3-(difluoromethyl)-5,5-difluoro-3b,4,4a,5-tetrahydro-1H-cyclopropa[3,4]cyclopenta[1,2-c]pyrazol-1-yl)acetamide] showed a CC50 at 4 day [1] of over 100 nM and an EC50 (recombinant NL4-3 virus) of 0.062 nM.
For `Cc1cc(C)nc(-c2ccc3c(=O)n(-c4ccc(Cl)c5c(NS(C)(=O)=O)nn(C)c45)c([C@H](Cc4cc(F)cc(F)c4)NC(=O)Cn4nc(C(F)F)c5c4C(F)(F)[C@@H]4C[C@H]54)nc3n2)n1` (atropisomer, axis not shown; (P)) [Example 11, N-((S)-1-((3P)-3-(4-chloro-1-methyl-3-(methylsulfonamido)-1H-indazol-7-yl)-7-(4,6-dimethylpyrimidin-2-yl)-4-oxo-3,4-dihydropyrido[2,3-d]pyrimidin-2-yl)-2-(3,5-difluorophenyl)ethyl)-2-((3bS,4aR)-3-(difluoromethyl)-5,5-difluoro-3b,4,4a,5-tetrahydro-1H-cyclopropa[3,4]cyclopenta[1,2-c]pyrazol-1-yl)acetamide], the CC50 at 4 day [1] was over 100 nM and the EC50 (recombinant NL4-3 virus) was 0.036 nM.
`Cn1nc(NS(C)(=O)=O)c2c(Cl)ccc(-n3c([C@H](Cc4cc(F)cc(F)c4)NC(=O)Cn4nc(C(F)F)c5c4C(F)(F)[C@@H]4C[C@H]54)nc4nc(-n5cnc(C(F)(F)F)n5)ccc4c3=O)c21` (atropisomer, axis not shown; (P)) [Example 80, N-((S)-1-((3P)-3-(4-chloro-1-methyl-3-(methylsulfonamido)-1H-indazol-7-yl)-4-oxo-7-(3-(trifluoromethyl)-1H-1,2,4-triazol-1-yl)-3,4-dihydropyrido[2,3-d]pyrimidin-2-yl)-2-(3,5-difluorophenyl)ethyl)-2-((3bS,4aR)-3-(difluoromethyl)-5,5-difluoro-3b,4,4a,5-tetrahydro-1H-cyclopropa[3,4]cyclopenta[1,2-c]pyrazol-1-yl)acetamide] showed a CC50 at 4 day [1] of over 100 nM and an EC50 (recombinant NL4-3 virus) of 0.028 nM.
Compound `Cn1nc(NS(C)(=O)=O)c2c(Cl)ccc(-n3c([C@H](Cc4cc(F)cc(F)c4)NC(=O)Cn4nc(C(F)F)c5c4C(F)(F)[C@@H]4C[C@H]54)nc4nc(-c5cnc(C(C)(F)F)s5)ccc4c3=O)c21` (atropisomer, axis not shown; (P)) [Example 99, N-((S)-1-((3P)-3-(4-chloro-1-methyl-3-(methylsulfonamido)-1H-indazol-7-yl)-7-(2-(1,1-difluoroethyl)thiazol-5-yl)-4-oxo-3,4-dihydropyrido[2,3-d]pyrimidin-2-yl)-2-(3,5-difluorophenyl)ethyl)-2-((3bS,4aR)-3-(difluoromethyl)-5,5-difluoro-3b,4,4a,5-tetrahydro-1H-cyclopropa[3,4]cyclopenta[1,2-c]pyrazol-1-yl)acetamide] has a CC50 at 4 day [1] of over 100 nM and an EC50 (recombinant NL4-3 virus) of 0.062 nM.
In the case of `Cn1nc(NS(C)(=O)=O)c2c(Cl)ccc(-n3c([C@H](Cc4cc(F)cc(F)c4)NC(=O)Cn4nc(C(F)F)c5c4C(F)(F)[C@@H]4C[C@H]54)nc4nc(-c5cnn(CCF)c5)ccc4c3=O)c21` (atropisomer, axis not shown; (P)) [Example 76, N-((S)-1-((3P)-3-(4-chloro-1-methyl-3-(methylsulfonamido)-1H-indazol-7-yl)-7-(1-(2-fluoroethyl)-1H-pyrazol-4-yl)-4-oxo-3,4-dihydropyrido[2,3-d]pyrimidin-2-yl)-2-(3,5-difluorophenyl)ethyl)-2-((3bS,4aR)-3-(difluoromethyl)-5,5-difluoro-3b,4,4a,5-tetrahydro-1H-cyclopropa[3,4]cyclopenta[1,2-c]pyrazol-1-yl)acetamide], the CC50 at 4 day [1] is reported as over 100 nM and the EC50 (recombinant NL4-3 virus) is reported as 0.11 nM.
With `Cn1nc(NS(C)(=O)=O)c2c(Cl)ccc(-n3c([C@H](Cc4cc(F)cc(F)c4)NC(=O)Cn4nc(C(F)F)c5c4C(F)(F)[C@@H]4C[C@H]54)nc4nc(-c5cccc(C(F)(F)F)n5)ccc4c3=O)c21` (atropisomer, axis not shown; (P)) [Example 9, N-((S)-1-((3P)-3-(4-chloro-1-methyl-3-(methylsulfonamido)-1H-indazol-7-yl)-4-oxo-7-(6-(trifluoromethyl)pyridin-2-yl)-3,4-dihydropyrido[2,3-d]pyrimidin-2-yl)-2-(3,5-difluorophenyl)ethyl)-2-((3bS,4aR)-3-(difluoromethyl)-5,5-difluoro-3b,4,4a,5-tetrahydro-1H-cyclopropa[3,4]cyclopenta[1,2-c]pyrazol-1-yl)acetamide] the CC50 at 4 day [1] was over 100 nM and the EC50 (recombinant NL4-3 virus) was 0.065 nM.
With `Cc1cccc(-c2ccc3c(=O)n(-c4ccc(Cl)c5c(NS(C)(=O)=O)nn(C)c45)c([C@H](Cc4cc(F)cc(F)c4)NC(=O)Cn4nc(C(F)F)c5c4C(F)(F)[C@@H]4C[C@H]54)nc3n2)n1` (atropisomer, axis not shown; (P)) [Example 31, N-((S)-1-((3P)-3-(4-chloro-1-methyl-3-(methylsulfonamido)-1H-indazol-7-yl)-7-(6-methylpyridin-2-yl)-4-oxo-3,4-dihydropyrido[2,3-d]pyrimidin-2-yl)-2-(3,5-difluorophenyl)ethyl)-2-((3bS,4aR)-3-(difluoromethyl)-5,5-difluoro-3b,4,4a,5-tetrahydro-1H-cyclopropa[3,4]cyclopenta[1,2-c]pyrazol-1-yl)acetamide] the CC50 at 4 day [1] was over 100 nM and the EC50 (recombinant NL4-3 virus) was 0.031 nM.
